From ChEMBL document CHEMBL1201862, “PubChem BioAssay data set” (2004)
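Where inhibition never reached the appropriate level, the endpoint shown equals the highest concentration tested. Otherwise, values were interpolated linearly from a five-concentration, 48-hour dose response in 96-well plates. GI50 marks 50% less growth.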 Active and inactive are the calls of the source. Rule as the data show it: active = GI50 up to about 1.1 µM and inactive = higher.

Tests used:
Assay in all cases: DTP human tumour cell line panel, 48 h
MCF7 = system: MCF7
NCI-H522 = system: NCI-H522
T47D = system: T47D
SK-OV-3 = system: SK-OV-3
ACHN = system: ACHN
COLO 205 = system: COLO 205
BT-549 = system: BT-549
SR = system: SR
OVCAR-5 = system: OVCAR-5
HL-60 = system: HL-60
M14 = system: M14
MDA-MB-435 = system: MDA-MB-435
SF-268 = system: SF-268
IGROV-1 = system: IGROV-1
SK-MEL-2 = system: SK-MEL-2
CCRF-CEM = system: CCRF-CEM
EKVX = system: EKVX
SNB-19 = system: SNB-19
U-251 = system: U-251
NCI-H226 = system: NCI-H226

| SMILES | GI50 (MCF7) | GI50 (NCI-H522) | GI50 (T47D) | GI50 (SK-OV-3) | GI50 (ACHN) | GI50 (COLO 205) | GI50 (BT-549) | GI50 (SR) | GI50 (OVCAR-5) | GI50 (HL-60) | GI50 (M14) | GI50 (MDA-MB-435) | GI50 (SF-268) | GI50 (IGROV-1) | GI50 (SK-MEL-2) | GI50 (CCRF-CEM) | GI50 (EKVX) | GI50 (SNB-19) | GI50 (U-251) | GI50 (NCI-H226) |
| --- | --- | --- | --- | --- | --- | --- | --- | --- | --- | --- | --- | --- | --- | --- | --- | --- | --- | --- | --- | --- |
| COc1cc(N(CCC#N)CCC#N)ccc1/C=C1\SC(=S)NC1=O | > 100 µM (inactive) | > 100 µM (inactive) | > 100 µM (inactive) | > 100 µM (inactive) | > 100 µM (inactive) | > 100 µM (inactive) | > 100 µM (inactive) | > 100 µM (inactive) | > 100 µM (inactive) | > 100 µM (inactive) | > 100 µM (inactive) | > 100 µM (inactive) | > 100 µM (inactive) | > 100 µM (inactive) | > 100 µM (inactive) | > 100 µM (inactive) | > 100 µM (inactive) | > 100 µM (inactive) | > 100 µM (inactive) | > 100 µM (inactive) |
| O=[N+]([O-])c1ccc2nc(Cl)n[n+]([O-])c2c1 | 5.52 µM (inactive) | 12 µM (inactive) | 16.8 µM (inactive) | 17.5 µM (inactive) | 14 µM (inactive) | 9.04 µM (inactive) | 16.2 µM (inactive) | 2.2 µM (inactive) | 17 µM (inactive) | 0.668 µM (active) | 14.3 µM (inactive) | 13.8 µM (inactive) | 14.1 µM (inactive) | 10.3 µM (inactive) | 15.2 µM (inactive) | 1.06 µM (active) | 18.5 µM (inactive) | 25.5 µM (inactive) | 16.6 µM (inactive) | 19.6 µM (inactive) |
| Clc1ccc(Nc2nc(Cl)c3nc[nH]c3n2)cc1Cl | 30.5 µM (inactive) | 18.7 µM (inactive) | 14.2 µM (inactive) | 33.2 µM (inactive) | 24.9 µM (inactive) | 18.6 µM (inactive) | 15.6 µM (inactive) | 19.2 µM (inactive) | 48.8 µM (inactive) | 18.2 µM (inactive) | 36.7 µM (inactive) | 26.9 µM (inactive) | 22.1 µM (inactive) | 22.2 µM (inactive) | 21.8 µM (inactive) | 18.7 µM (inactive) | 1.97 µM (inactive) | 37.2 µM (inactive) | 29.1 µM (inactive) | 38.4 µM (inactive) |
| [O-][S+]1SC(=S)C2C=CC=CC21 (stereo not given) | 76.9 µM (inactive) | 76.2 µM (inactive) | > 100 µM (inactive) | > 100 µM (inactive) | > 100 µM (inactive) | > 100 µM (inactive) | > 100 µM (inactive) | > 100 µM (inactive) | > 100 µM (inactive) | 1.62 µM (inactive) | 23.2 µM (inactive) | 80 µM (inactive) | > 100 µM (inactive) | 49.1 µM (inactive) | > 100 µM (inactive) | 2.37 µM (inactive) | 57.5 µM (inactive) | 48.4 µM (inactive) | > 100 µM (inactive) | 59.6 µM (inactive) |
| C/C(=N\O)c1ccc(Nc2nc3ccccc3c3occc23)cc1 | 3.42 µM (inactive) | 3.34 µM (inactive) | 5.45 µM (inactive) | 18.6 µM (inactive) | 9.82 µM (inactive) | 4.66 µM (inactive) | 18.3 µM (inactive) | 2.37 µM (inactive) | 8.3 µM (inactive) | 2.29 µM (inactive) | 4.86 µM (inactive) | 6.58 µM (inactive) | 6.31 µM (inactive) | 7.01 µM (inactive) | 12.6 µM (inactive) | 4 µM (inactive) | 21.7 µM (inactive) | 16.1 µM (inactive) | 12.6 µM (inactive) | 2.33 µM (inactive) |
| CC(=O)N1c2ccccc2C23CCN(C)CC4C(C)OCC(C4CC2=O)C13 (stereo not given) | > 100 µM (inactive) | > 100 µM (inactive) | > 100 µM (inactive) | > 100 µM (inactive) | > 100 µM (inactive) | > 100 µM (inactive) | > 100 µM (inactive) | > 100 µM (inactive) | > 100 µM (inactive) | > 100 µM (inactive) | > 100 µM (inactive) | > 100 µM (inactive) | > 100 µM (inactive) | > 100 µM (inactive) | > 100 µM (inactive) | > 100 µM (inactive) | > 100 µM (inactive) | > 100 µM (inactive) | > 100 µM (inactive) | > 100 µM (inactive) |
| N#Cc1c(N)nc2[nH]nc(N)c2c1-c1ccc(Cl)cc1 | 3.03 µM (inactive) | 2.56 µM (inactive) | 1.47 µM (inactive) | 2.56 µM (inactive) | 2.49 µM (inactive) | 1.48 µM (inactive) | 2.73 µM (inactive) | > 22.6 µM (inactive) | 11.9 µM (inactive) | 9.75 µM (inactive) | 3.33 µM (inactive) | 5.85 µM (inactive) | 5.11 µM (inactive) | 1.84 µM (inactive) | 1.88 µM (inactive) | 4.95 µM (inactive) | 5.21 µM (inactive) | 29.2 µM (inactive) | 19.3 µM (inactive) | 5.41 µM (inactive) |
| O=C1C=CC2(O[C@H](C3CCCCC3)[C@@H](C3CCCCC3)O2)C(SC(=O)c2ccccc2)C1 (stereo not given in full) | 1.48 µM (inactive) | 1.04 µM (active) | 0.975 µM (active) | 12.9 µM (inactive) | 1.94 µM (inactive) | 5.87 µM (inactive) | 3.1 µM (inactive) | 0.925 µM (active) | 1.88 µM (inactive) | 1.79 µM (inactive) | 2.14 µM (inactive) | 1.62 µM (inactive) | 2.62 µM (inactive) | 1.75 µM (inactive) | 4.21 µM (inactive) | 1.26 µM (inactive) | 6.1 µM (inactive) | 1.44 µM (inactive) | 1.91 µM (inactive) | 0.82 µM (active) |
| CC1=CC[C@H](C(C)C)C(C(O)[C@@H](C)O[Si](c2ccccc2)(c2ccccc2)C(C)(C)C)C1=O (stereo not given in full) | 15.8 µM (inactive) | 16.5 µM (inactive) | 13.2 µM (inactive) | 28.5 µM (inactive) | 15.6 µM (inactive) | 17.2 µM (inactive) | 18.9 µM (inactive) | 14.5 µM (inactive) | 18.9 µM (inactive) | 16.9 µM (inactive) | 15.3 µM (inactive) | 21.4 µM (inactive) | 21.1 µM (inactive) | 24.2 µM (inactive) | 15.1 µM (inactive) | 19.5 µM (inactive) | 13.3 µM (inactive) | 17.3 µM (inactive) | 15.8 µM (inactive) | 20 µM (inactive) |
| COc1ccc(-c2oc3c(OC)c(OC)c(OC)c(O)c3c(=O)c2OC)cc1OC | 3.97 µM (inactive) | 14.3 µM (inactive) | 2.86 µM (inactive) | 8.2 µM (inactive) | 25 µM (inactive) | 25.8 µM (inactive) | 34.4 µM (inactive) | 7.87 µM (inactive) | 35.6 µM (inactive) | 6.81 µM (inactive) | 26.4 µM (inactive) | 4.69 µM (inactive) | 9.33 µM (inactive) | 3.15 µM (inactive) | 15.1 µM (inactive) | 16.9 µM (inactive) | 37.6 µM (inactive) | 63.4 µM (inactive) | 27.7 µM (inactive) | 20.7 µM (inactive) |
